Experimental data reported in US20250188032A1, “NITROGEN-CONTAINING HETEROCYCLIC COMPOUNDS AND USES THEREOF” (BNH RESEARCH CO., LTD., priority 2022, published 2025).

tested on: 293T cells; experiment: Cytotoxicity test (CCK-8 cell viability) in 293T cells; format: cell-based, human; details: 10 uM, 24 hours co-incubation, 293T cell line, % of control
Description: Human undifferentiated neuroblastoma cell line SH-SY5Y and human embryonic kidney cell line (HEK)-293T were purchased from Korean Cell Line Bank (Korea) and Takara (Japan), respectively. Cells were grown in HyClone Minimal Essential Medium (MEM) and Dulbecco's Modified Eagle Medium (DMEM), respectively, supplemented with 10% (v/v) fetal bovine serum (FBS), penicillin (100 U/mL), and streptomycin ([…]). Cells were maintained in a humidified atmosphere of 95% air and 5% CO2 at 37° C. Cells were passaged 10 times at maximum. Cells were dissociated using 0.05% trypsin-EDTA solution and the cells were seeded in new culture dishes for maintenance.
To examine the cytotoxicity of compounds described herein in human cell lines, SH-SY5Y and 293T cells were used. Approximately 8,000 cells (for 293T) and 15,000 cells (for SH-SY5Y) were plated per well of a 96-well plate (SPL Life Sciences Co., Ltd., Pocheon, Korea). After incubating at 37° C. for 24 hours in a humidified atmosphere containing 5% CO2, the culture medium was replaced by a series of concentrations of test compounds diluted in the corresponding culture medium. The time of co-incubation was 24 hours and six replicates were made for each measurement. Finally, 10 μL of CCK-8 reagent (Dojindo Laboratories, Rockville, MD) was added to each well, and after incubation at 37° C. for 3 minutes, the OD at 450 nm was measured using a multifunction microplate reader (Tecan Infinite M200 Pro). These measurements were compared to that of a control and expressed as a percentage of the control to calculate cell viability. The IC50 value was calculated using SPSS software. To do this, the absorbance of the blank wells with only growth medium is subtracted from the values or the wells with cells. The readout value of background (vehicle) was set as a 100% viability, and then the percent viability for each test solution was calculated.
Cell viability (%)=[(As-Ab)/(Ac-Ab)]×100
The data was presented as the mean value and standard error of the mean (S.E.M.). Statistical analysis was performed with the one-way ANOVA with Tukey's post hoc test (GraphPad Prism 5 software package, version 5.02, GraphPad Software Inc. USA). Significance was accepted at p<0.05.

In order of falling “Cell viability test results (CCK) 10 uM” value:
1. O=C(O)[C@@H]1CCCN1C(=O)Cc1ccc(F)cc1Cl [BnH12013, (2-(2-chloro-4-fluorophenyl)acetyl)-L-proline]  99%<
2. O=C(NO)[C@H]1CCCN1C(=O)Cc1ccc(F)cc1Cl [BnH12014, (R)-1-(2-(2-chloro-4-fluorophenyl)acetyl)-N-hydroxypyrrolidine-2-carboxamide]  99%<
3. O=C(NO)[C@@H]1CCCN1C(=O)c1ccccc1 [BnH12019, (S)-1-Benzoyl-N-hydroxypyrrolidine-2-carboxamide]  99%<
4. C[C@H]1CC[C@@H](C(N)=O)CN1C(=O)Cc1ccc(F)cc1Cl [BnH12022, (3R,6S)-1-(2-(2-chloro-4-fluorophenyl)acetyl)-6-methylpiperidine-3-carboxamide]  99%<
5. Cc1ccc(CC(=O)N2C[C@H](C(=O)O)CC[C@@H]2C)cc1 [BnH12024, (3R,6S)-6-methyl-1-(2-(p-tolyl)acetyl)piperidine-3-carboxylic acid]  99%<
6. C[C@H]1CC[C@@H](C(=O)O)CN1C(=O)Cc1cccc(Cl)c1 [BnH12026, (3R,6S)-1-(2-(3-chlorophenyl)acetyl)-6-methylpiperidine-3-carboxylic acid]  99%<
7. C[C@H]1CC[C@@H](C(=O)O)CN1C(=O)Cc1ccc(C(C)(C)C)cc1 [BnH12029, (3R,6S)-1-(2-(4-(tert-butyl)phenyl)acetyl)-6-methylpiperidine-3-carboxylic acid]  99%<
8. C[C@H]1CC[C@@H](C(=O)O)CN1C(=O)Cc1ccc(Br)cc1 [BnH12032, (3R,6S)-1-(2-(4-bromophenyl)acetyl)-6-methylpiperidine-3-carboxylic acid]  99%<
9. COc1ccc(CC(=O)N2C[C@H](C(=O)O)CC[C@@H]2C)cn1 [BnH12075, (3R,6S)-1-(2-(6-methoxypyridin-3-yl)acetyl)-6-methylpiperidine-3-carboxylic acid]  99%<
10. O=C(O)[C@@H]1CCCN(C(=O)Cc2ccc(F)cc2Cl)C1 [BnH12004, (R)-1-(2-(2-chloro-4-fluorophenyl)acetyl)piperidine-3-carboxylic acid]  95%<
11. CCC(=O)N1C[C@H](C(=O)O)CC[C@@H]1C [BnH12008, (3R,6S)-6-methyl-1-propionylpiperidine-3-carboxylic acid]  95%<
12. C[C@H]1CC[C@@H](C(=O)O)CN1C(=O)c1ccc(F)cc1Cl [BnH12011, (3R,6S)-1-(2-chloro-4-fluorobenzoyl)-6-methylpiperidine-3-carboxylic acid]  95%<
13. O=C(O)[C@H]1CCCN1C(=O)Cc1ccc(F)cc1Cl [BnH12012, (2-(2-chloro-4-fluorophenyl)acetyl)-D-proline]  95%<
14. COC(=O)[C@@H]1CC[C@H](C)N(C(=O)Cc2ccc(F)cc2Cl)C1 [BnH12020, Methyl (3R,6S)-1-(2-(2-chloro-4-fluorophenyl)acetyl)-6-methylpiperidine-3-carboxylate]  95%<
15. C[C@H]1CC[C@@H](C(=O)O)CN1C(=O)Cc1ccc(Cl)cc1 [BnH12023, (3R,6S)-1-(2-(4-chlorophenyl)acetyl)-6-methylpiperidine-3-carboxylic acid]  95%<
16. Cc1cccc(CC(=O)N2C[C@H](C(=O)O)CC[C@@H]2C)c1 [BnH12030, (3R,6S)-6-methyl-1-(2-(m-tolyl)acetyl)piperidine-3-carboxylic acid]  95%<
17. C[C@H]1CC[C@@H](C(=O)O)CN1C(=O)Cc1ccc(N(C)C)cc1 [BnH12076, (3R,6S)-1-(2-(4-(dimethylamino)phenyl)acetyl)-6-methylpiperidine-3-carboxylic acid]  95%<
18. CCOC(=O)[C@@H]1CC[C@H](C)N(C(=O)Cc2ccc(F)cc2Cl)C1 [BnH12021, Ethyl (3R,6S)-1-(2-(2-chloro-4-fluorophenyl)acetyl)-6-methylpiperidine-3-carboxylate]  90%<
19. C[C@H]1CC[C@@H](C(=O)O)CN1C(=O)Cc1ccc(Cl)c(Cl)c1 [BnH12028, (3R,6S)-1-(2-(3,4-dichlorophenyl)acetyl)-6-methylpiperidine-3-carboxylic acid]  90%<
20. C[C@H]1CC[C@@H](C(=O)O)CN1C(=O)Cc1ccc(F)cc1 [BnH12031, (3R,6S)-1-(2-(4-fluorophenyl)acetyl)-6-methylpiperidine-3-carboxylic acid]  90%<
21. C[C@H]1CC[C@@H](C(=O)[O-])CN1C(=O)Cc1ccncc1.[Na+] [BnH12033, Sodium (3R,6S)-6-methyl-1-(2-(pyridin-4-yl)acetyl)piperidine-3-carboxylate]  90%<
22. C[C@H]1CC[C@@H](C(=O)O)CN1C(=O)Cc1cccs1 [BnH12034, (3R,6S)-6-methyl-1-(2-(thiophen-2-yl)acetyl)piperidine-3-carboxylic acid]  90%<
23. C[C@H]1CC[C@@H](C(=O)O)CN1C(=O)Cc1ccco1 [BnH12035, (3R,6S)-1-(2-(furan-2-yl)acetyl)-6-methylpiperidine-3-carboxylic acid]  90%<
24. C[C@H]1CC[C@@H](C(=O)O)CN1C(=O)Cc1ncccn1 [BnH12041, (3R,6S)-6-methyl-1-(2-(pyrimidin-2-yl)acetyl)piperidine-3-carboxylic acid]  90%<
25. C[C@H]1CC[C@@H](C(=O)O)CN1C(=O)Cc1cncnc1 [BnH12040, (3R,6S)-6-methyl-1-(2-(pyrimidin-5-yl)acetyl)piperidine-3-carboxylic acid]  85%<
26. C[C@@H]1CC[C@H](C(=O)O)CN1C(=O)Cc1ccccc1 [BnH12062, (3S,6R)-6-methyl-1-(2-phenylacetyl)piperidine-3-carboxylic acid]  85%<
27. CCC1CCC(C(=O)O)CN1C(=O)Cc1ccc(F)cc1Cl (stereo not drawn) [BnH12094, 1-(2-(2-chloro-4-fluorophenyl)acetyl)-6-ethylpiperidine-3-carboxylic acid]  80%<

same assay, conditions: 100 uM, 24 hours co-incubation, 293T cell line, % of control

In order of falling “Cell viability test results (CCK) 100 uM” value:
1. O=C(O)[C@@H]1CCCN1C(=O)Cc1ccc(F)cc1Cl [BnH12013, (2-(2-chloro-4-fluorophenyl)acetyl)-L-proline]  99%<
2. C[C@H]1CC[C@@H](C(N)=O)CN1C(=O)Cc1ccc(F)cc1Cl [BnH12022, (3R,6S)-1-(2-(2-chloro-4-fluorophenyl)acetyl)-6-methylpiperidine-3-carboxamide]  99%<
3. Cc1ccc(CC(=O)N2C[C@H](C(=O)O)CC[C@@H]2C)cc1 [BnH12024, (3R,6S)-6-methyl-1-(2-(p-tolyl)acetyl)piperidine-3-carboxylic acid]  99%<
4. C[C@H]1CC[C@@H](C(=O)O)CN1C(=O)Cc1cccc(Cl)c1 [BnH12026, (3R,6S)-1-(2-(3-chlorophenyl)acetyl)-6-methylpiperidine-3-carboxylic acid]  99%<
5. COc1ccc(CC(=O)N2C[C@H](C(=O)O)CC[C@@H]2C)cn1 [BnH12075, (3R,6S)-1-(2-(6-methoxypyridin-3-yl)acetyl)-6-methylpiperidine-3-carboxylic acid]  99%<
6. C[C@H]1CC[C@@H](C(=O)O)CN1C(=O)c1ccc(F)cc1Cl [BnH12011, (3R,6S)-1-(2-chloro-4-fluorobenzoyl)-6-methylpiperidine-3-carboxylic acid]  95%<
7. COC(=O)[C@@H]1CC[C@H](C)N(C(=O)Cc2ccc(F)cc2Cl)C1 [BnH12020, Methyl (3R,6S)-1-(2-(2-chloro-4-fluorophenyl)acetyl)-6-methylpiperidine-3-carboxylate]  95%<
8. C[C@H]1CC[C@@H](C(=O)O)CN1C(=O)Cc1ccc(Br)cc1 [BnH12032, (3R,6S)-1-(2-(4-bromophenyl)acetyl)-6-methylpiperidine-3-carboxylic acid]  95%<
9. C[C@H]1CC[C@@H](C(=O)O)CN1C(=O)Cc1ccc(N(C)C)cc1 [BnH12076, (3R,6S)-1-(2-(4-(dimethylamino)phenyl)acetyl)-6-methylpiperidine-3-carboxylic acid]  95%<
10. CCC(=O)N1C[C@H](C(=O)O)CC[C@@H]1C [BnH12008, (3R,6S)-6-methyl-1-propionylpiperidine-3-carboxylic acid]  90%<
11. O=C(O)[C@H]1CCCN1C(=O)Cc1ccc(F)cc1Cl [BnH12012, (2-(2-chloro-4-fluorophenyl)acetyl)-D-proline]  90%<
12. O=C(NO)[C@H]1CCCN1C(=O)Cc1ccc(F)cc1Cl [BnH12014, (R)-1-(2-(2-chloro-4-fluorophenyl)acetyl)-N-hydroxypyrrolidine-2-carboxamide]  90%<
13. O=C(NO)[C@@H]1CCCN1C(=O)c1ccccc1 [BnH12019, (S)-1-Benzoyl-N-hydroxypyrrolidine-2-carboxamide]  90%<
14. O=C(O)[C@@H]1CCCN(C(=O)Cc2ccc(F)cc2Cl)C1 [BnH12004, (R)-1-(2-(2-chloro-4-fluorophenyl)acetyl)piperidine-3-carboxylic acid]  85%<
15. Cc1cccc(CC(=O)N2C[C@H](C(=O)O)CC[C@@H]2C)c1 [BnH12030, (3R,6S)-6-methyl-1-(2-(m-tolyl)acetyl)piperidine-3-carboxylic acid]  85%<
16. C[C@H]1CC[C@@H](C(=O)O)CN1C(=O)Cc1cccs1 [BnH12034, (3R,6S)-6-methyl-1-(2-(thiophen-2-yl)acetyl)piperidine-3-carboxylic acid]  85%<
17. C[C@H]1CC[C@@H](C(=O)O)CN1C(=O)Cc1ccco1 [BnH12035, (3R,6S)-1-(2-(furan-2-yl)acetyl)-6-methylpiperidine-3-carboxylic acid]  85%<
18. CCOC(=O)[C@@H]1CC[C@H](C)N(C(=O)Cc2ccc(F)cc2Cl)C1 [BnH12021, Ethyl (3R,6S)-1-(2-(2-chloro-4-fluorophenyl)acetyl)-6-methylpiperidine-3-carboxylate]  80%<
19. C[C@H]1CC[C@@H](C(=O)O)CN1C(=O)Cc1ccc(Cl)cc1 [BnH12023, (3R,6S)-1-(2-(4-chlorophenyl)acetyl)-6-methylpiperidine-3-carboxylic acid]  80%<
20. C[C@H]1CC[C@@H](C(=O)O)CN1C(=O)Cc1ccc(Cl)c(Cl)c1 [BnH12028, (3R,6S)-1-(2-(3,4-dichlorophenyl)acetyl)-6-methylpiperidine-3-carboxylic acid]  80%<
21. C[C@H]1CC[C@@H](C(=O)O)CN1C(=O)Cc1ccc(C(C)(C)C)cc1 [BnH12029, (3R,6S)-1-(2-(4-(tert-butyl)phenyl)acetyl)-6-methylpiperidine-3-carboxylic acid]  80%<
22. C[C@H]1CC[C@@H](C(=O)O)CN1C(=O)Cc1cncnc1 [BnH12040, (3R,6S)-6-methyl-1-(2-(pyrimidin-5-yl)acetyl)piperidine-3-carboxylic acid]  80%<
23. C[C@H]1CC[C@@H](C(=O)O)CN1C(=O)Cc1ccc(F)cc1 [BnH12031, (3R,6S)-1-(2-(4-fluorophenyl)acetyl)-6-methylpiperidine-3-carboxylic acid]  75%<
24. C[C@@H]1CC[C@H](C(=O)O)CN1C(=O)Cc1ccccc1 [BnH12062, (3S,6R)-6-methyl-1-(2-phenylacetyl)piperidine-3-carboxylic acid]  75%<
25. C[C@H]1CC[C@@H](C(=O)O)CN1C(=O)Cc1ncccn1 [BnH12041, (3R,6S)-6-methyl-1-(2-(pyrimidin-2-yl)acetyl)piperidine-3-carboxylic acid]  70%<
26. CCC1CCC(C(=O)O)CN1C(=O)Cc1ccc(F)cc1Cl (stereo not drawn) [BnH12094, 1-(2-(2-chloro-4-fluorophenyl)acetyl)-6-ethylpiperidine-3-carboxylic acid]  70%<
27. C[C@H]1CC[C@@H](C(=O)[O-])CN1C(=O)Cc1ccncc1.[Na+] [BnH12033, Sodium (3R,6S)-6-methyl-1-(2-(pyridin-4-yl)acetyl)piperidine-3-carboxylate]  65%<
